Measured values from PubChem BioAssay AID743133 (The Scripps Research Institute Molecular Screening Center, 2013).

Molecular target: Acyl-protein thioesterase 1 (Homo sapiens) + Acyl-protein thioesterase 2 (Homo sapiens) (UniProt O75608+O95372)
Assay: reversibility of LYPLA1/LYPLA2 inhibition after gel filtration, late-stage follow-up, mechanism study for LYPLA1/LYPLA2 inhibitor project, cell lysate, HeLa lysate, fluorescence gel ABPP (AID 743133)
Conditions: HeLa lysate gel-based ABPP, FP-Rh; for recovery after gel filtration: stronger effect = lower value; for inhibition: stronger effect = higher value

Chain of Acyl-protein thioesterase 1 (Homo sapiens) + Acyl-protein thioesterase 2 (Homo sapiens) (O75608 whole entry, looked up, one chain of several): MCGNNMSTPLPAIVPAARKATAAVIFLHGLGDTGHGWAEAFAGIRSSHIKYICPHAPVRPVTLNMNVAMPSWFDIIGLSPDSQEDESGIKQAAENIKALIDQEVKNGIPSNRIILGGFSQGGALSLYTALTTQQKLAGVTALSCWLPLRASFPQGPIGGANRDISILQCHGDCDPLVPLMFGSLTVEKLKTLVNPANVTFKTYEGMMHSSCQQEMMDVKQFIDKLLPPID

- recovery after gel filtration (at 0.2 µM): 0%
- inhibition (at 0.2 µM, post-gel filtration inhibition): 85%
- inhibition (at 0.2 µM, pre-gel filtration inhibition): 85%
- recovery after gel filtration (at 1 µM): 0%
- inhibition (at 1 µM, post-gel filtration inhibition): 95%
- inhibition (at 1 µM, pre-gel filtration inhibition): 95%
SMILES: O=C(ON1C(=O)C2CN(C(=O)N3CCOCC3)CCN2C1=O)N1CCC(CCc2ccc(Cl)cc2)CC1 (stereo unspecified)
